In patent US9598441B2, “Therapeutic compounds and methods” (Wayne State University, priority 2011, dated 2017):

Assays:
[1] = system: HBC cells transfected with scrambled, CARP-1 or Cdh1 SiRNAs; test: MTT assay in SiRNA-transfected cells; assay type: cell-based, human
Method: (§1) Logarithmically growing cells were either untreated or treated with different agents for various time periods. The cells were lysed to prepare protein extracts. IP was carried out by incubating approximately 1 mg of the protein lysate with appropriate antibodies, and the immunoprecipitates or cell lysates were then electrophoresed on 9-12% SDS-polyacrylamide gels, and transferred to nitrocellulose membranes. The membranes were subsequently probed with various antibodies to determine expression/presence of the corresponding proteins. The cell growth inhibition was assessed by using MTT assay. Briefly, MTT (3-[4,5-Dimethylthiazol-2-yl]-2,5diphenyltetrazolium bromide) was dissolved in sterile 1×PBS to prepare a stock solution of 5 mg/ml. The solution was subsequently filtered through 0.2 μm filter and stored at 2-8° C. 4−5×10^2 cells were seeded in 96-well plates. After 72 h incubation with or without different agents, MTT stock solution was added to each culture being assayed to equal one tenth the original culture volume, followed by incubation of cells at 37° C. for another 2 h. At the end of the incubation, the media was removed and cells were treated with 100-200 μl of DMSO to solubilize the dye. The assessment of the live cells was derived by measuring the absorbance of the converted dye at wavelength of 570 nm.
To test this possibility, cells were transfected with 100 nM each of the CARP-1 or the scrambled SiRNAs as detailed in methods. The SiRNA-transfected cells were then either untreated or treated with 20 μM CFM-4 for 24 h followed by determination of levels of CARP-1 and cyclin B1 proteins. […] In a separate experiment, cells were similarly transfected with CARP-1 SiRNA or scrambled SiRNAs followed by treatment with CFM-4 essentially as in FIG. 6A, and cell viabilities were determined by the MTT assay. […] In a separate experiment, cells were similarly transfected with Cdh1 SiRNA or scrambled SiRNAs followed by treatment with CFM-4 essentially as in FIG. 6C, and cell viabilities were determined by the MTT assay.

[2] = system: CARP-1, cyclin B1, Cdc20, Cdh1, APC-2, CDKIs, caspases, p38, Bcl2 family proteins; test: Western blot of protein levels in treated cells; assay type: cell-based
Method: as §1

[3] = system: caspase-3, caspase-8, caspase-9, caspase-2; test: ApoAlert Caspase profiling plate, fluorescence-based; assay type: cell-based
Method: For apoptosis ELISA assay, 4−5×10^2 cells were seeded in 96-well plates and treated essentially as indicated in the MTT assay above. Untreated as well as treated cells were lysed, and levels of mono and oligo-nucleosomal DNA fragments in the lysates were determined by measuring optical density of each sample at 405 nm and 495 nm wavelengths. […] For TUNEL labeling, the cells were treated with various agents, fixed, labeled and photographed essentially as detailed in immuno-localization protocols described before (Zhang, L., Levi, E., Majumder, P., Yu, Y., Aboukameel, A., Du, J., Xu, H., Mohammad, R. M., Hatfield, J. S., Wali, A., Adsay, V., Majumdar, A. P. N., and Rishi, A. K. (2007) Mol. Cancer. Ther. 6(5), 1661-1672). […] Cell lysates derived from vehicle DMSO (Control) or CFM-4-treated cells were added to the wells that had immobilized fluorogenic caspase-3, caspase-8, caspase-9, or caspase-2 substrates. The fluorescence released from the activated caspase-dependent cleavage of respective substrate was detected by a plate reader at the excitation and emission wavelengths of 380 nm and 460 nm, respectively.

[4] = molecular target: T1, His-TAT-HA-tagged A-epitope peptide [CARP-1 (951-980)] (Homo sapiens, UniProt Q8IX12); test: In vitro binding of SMIs, immobilized A-epitope peptide pre-incubated with CFM; conditions: 100 μM, 30 min at RT; WB with anti-Gst
T1 construct: wild-type or scrambled His-TAT-HA-CARP-1 (951-980) peptides; made in house; host or cells: E. coli BL-21 (DE3)
T1 sequence (Q8IX12 951-980 limits assumed): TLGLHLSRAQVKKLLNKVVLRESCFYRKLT
Method: The CFM-4 and 5 were separately dissolved in DMSO to obtain a stock of 20-50 mM. For in vitro binding experiments we utilized affinity-purified Gst-APC-2 (685-754) and His-TAT-HA-tagged A-epitope (WT) peptide. Ten nanogram of the His-TAT-HA-tagged A-epitope (WT) peptide was first allowed to bind with Ni-NTA beads (ProBond, InVitrogen), and then the reaction was incubated with DMSO (control), 100 μM CFM-4, or 100 μM CFM-5 for 30 min at RT. The reactions were then subjected to three washes with the binding buffer, followed by incubation with 10 ng of affinity-purified Gst-APC-2 (685-754) peptide for 30 min at RT. The reactions were washed again for three times with PBS, eluted and analyzed on a SDS-PAGE followed by western blotting (WB) with anti-Gst antibodies. A similar strategy was performed by immobilizing the Gst-APC-2 (685-754) peptide with Gst-beads. The beads were washed, incubated with DMSO or the CFMs, and the reactions washed again. The reactions were then allowed to incubate with affinity purified A-epitope peptide, and the complexes analyzed by SDS-PAGE followed by WB with anti HA-tag antibodies.

activation of caspases (fluorescence-based quantitative assay) [3]: activation of caspases 3, 8, 9, and 2 | binding of immobilized A-epitope peptide with Gst-APC-2 (685-754) after pre-incubation with compound [4]: abrogated its binding
SMILES: O=C1N(Cc2ccccc2Cl)c2ccccc2C12NN=C(c1ccccc1)S2 (stereo not drawn) [CFM-4, 1-(2-chlorobenzyl)-5′-phenyl-3′H-spiro[indoline-3,2′-[1,3,4]thiadiazol]-2-one]
growth of cells transfected with scrambled SiRNAs (MTT) ([1]; 20 μM CFM-4, 24 h): suppressed growth | growth inhibition in CARP-1 SiRNA-transfected cells (MTT) ([1]; CARP-1 knockdown, 20 μM CFM-4, 24 h): blocked CFM-4-dependent inhibition of cell growth | growth inhibition in Cdh1 SiRNA-transfected cells (MTT) ([1]; Cdh1 knockdown): blocked CFM-4-dependent inhibition of HBC cell growth | APC-2 levels (WB) [2]: unaffected | Bax expression (WB) [2]: failed to stimulate Bax expression | Cdc20 levels (WB) [2]: significantly reduced | Cdh1 levels (WB) [2]: modest decline | cleavage of caspases (WB) [2]: cleavage of caspases 9 and 8 | tBid levels (WB) [2]: modest increase in tBid levels | CARP-1 levels (WB) ([2]; 50 nM velcade 6 h or 24 h, 20 μM CFM-4 24 h): robust increase in CARP-1 levels | p38 activation (WB) ([2]; 20 μM, from 6 h, sustained through 24 h): activation (phosphorylation) of p38 | levels of p21WAF1/CIP1 and p27KIP1 CDKIs (WB) ([2]; 0.5-1.0 h exposure): elevated | levels of p21WAF1/CIP1 and p27KIP1 CDKIs (WB) ([2]; 3 h and beyond): decline | cyclin B1 levels (WB) ([2]; 6 h and subsequent treatment periods): depleted cyclin B1 | levels of BimEL (WB) ([2]; 12 h or 24 h treatments): declined significantly | levels of Bims isoform (WB) ([2]; 12 h or 24 h treatments): concomitant increase | levels of E2 ubiquitin ligase UbCH10 (WB) ([2]; alone or in combination with caspase inhibitors): not affected | cleavage of PARP1 (WB) ([2]; cells transfected with scrambled SiRNAs): robust cleavage of PARP1 | levels of Bcl2, BclXL, Noxa, and Puma proteins (WB) ([2]; different cells): failed to modulate levels | CARP-1 and cyclin B1 levels (WB) ([2]; drug (ADR or TAM)-resistant MCF-7 cells): elevated CARP-1 and reduced cyclin B1 levels | cyclin B1 levels (WB) ([2]; prostate and pancreatic cancer cells): induced cyclin B1 loss | CARP-1 levels (WB) ([2]; time course, 6 h and subsequent treatment periods): stimulated CARP-1 levels
